Source: the supplement of paper PMC10307832

Key:
Test in all cases: relative viability (nuclei count vs DMSO), 5 days (fraction); higher = more cells survive
CAP-232 + Trametinib = compound: C[C@H]([C@@H](C(=O)N)NC(=O)[C@@H]1CSSC[C@@H](C(=O)N[C@H](C(=O)N[C@@H](C(=O)N[C@H](C(=O)N1)CCCCN)CC2=CNC3=CC=CC=C32)CC4=CC=C(C=C4)O)NC(=O)[C@@H](CC5=CC=CC=C5)N)O [CAP-232] + CC(=O)Nc1cccc(-n2c(=O)n(C3CC3)c(=O)c3c(Nc4ccc(I)cc4F)n(C)c(=O)c(C)c32)c1 [Trametinib] (partner 0.02 µM)
Method in brief: (§1)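 Relative viability equals treated-well nuclei counts divided by vehicle-well nuclei counts. Counts came from 4× images of lung cancer cell lines grown in 1536-well plates for 5 days after pin-tool dosing on the day after seeding. Dosing used one drug alone or a fixed anchor-drug dose plus five library-drug doses (not always all listed) in √10 steps, and values are medians of duplicate plates.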

CAP-232 + Navitoclax = compound: C[C@H]([C@@H](C(=O)N)NC(=O)[C@@H]1CSSC[C@@H](C(=O)N[C@H](C(=O)N[C@@H](C(=O)N[C@H](C(=O)N1)CCCCN)CC2=CNC3=CC=CC=C32)CC4=CC=C(C=C4)O)NC(=O)[C@@H](CC5=CC=CC=C5)N)O [CAP-232] + CC1(C)CCC(c2ccc(Cl)cc2)=C(CN2CCN(c3ccc(C(=O)NS(=O)(=O)c4ccc(N[C@H](CCN5CCOCC5)CSc5ccccc5)c(S(=O)(=O)C(F)(F)F)c4)cc3)CC2)C1 [Navitoclax] (partner 0.5 µM)
Method in brief: as §1

CAP-232 + Luminespib = compound: C[C@H]([C@@H](C(=O)N)NC(=O)[C@@H]1CSSC[C@@H](C(=O)N[C@H](C(=O)N[C@@H](C(=O)N[C@H](C(=O)N1)CCCCN)CC2=CNC3=CC=CC=C32)CC4=CC=C(C=C4)O)NC(=O)[C@@H](CC5=CC=CC=C5)N)O [CAP-232] + CCNC(=O)c1noc(-c2cc(C(C)C)c(O)cc2O)c1-c1ccc(CN2CCOCC2)cc1 [Luminespib] (partner 0.01 µM)
Method in brief: as §1

CAP-232 + AZD7762 = compound: C[C@H]([C@@H](C(=O)N)NC(=O)[C@@H]1CSSC[C@@H](C(=O)N[C@H](C(=O)N[C@@H](C(=O)N[C@H](C(=O)N1)CCCCN)CC2=CNC3=CC=CC=C32)CC4=CC=C(C=C4)O)NC(=O)[C@@H](CC5=CC=CC=C5)N)O [CAP-232] + NC(=O)Nc1cc(-c2cccc(F)c2)sc1C(=O)N[C@H]1CCCNC1 [AZD7762] (partner 0.2 µM)
Method in brief: as §1

CAP-232 + Decitabine = compound: C[C@H]([C@@H](C(=O)N)NC(=O)[C@@H]1CSSC[C@@H](C(=O)N[C@H](C(=O)N[C@@H](C(=O)N[C@H](C(=O)N1)CCCCN)CC2=CNC3=CC=CC=C32)CC4=CC=C(C=C4)O)NC(=O)[C@@H](CC5=CC=CC=C5)N)O [CAP-232] + Nc1ncn([C@H]2C[C@H](O)[C@@H](CO)O2)c(=O)n1 [Decitabine] (partner 2 µM)
Method in brief: as §1

Cell Line | relative viability (CAP-232 + Trametinib; first compound 0.4 µM) | relative viability (CAP-232 + Trametinib; first compound 1.265 µM) | relative viability (CAP-232 + Trametinib; first compound 4 µM) | relative viability (CAP-232 + Trametinib; first compound 12.65 µM) | relative viability (CAP-232 + Navitoclax; first compound 0.4 µM) | relative viability (CAP-232 + Navitoclax; first compound 1.265 µM) | relative viability (CAP-232 + Navitoclax; first compound 4 µM) | relative viability (CAP-232 + Navitoclax; first compound 12.65 µM) | relative viability (CAP-232 + Luminespib; first compound 0.4 µM) | relative viability (CAP-232 + Luminespib; first compound 1.265 µM) | relative viability (CAP-232 + Luminespib; first compound 4 µM) | relative viability (CAP-232 + Luminespib; first compound 12.65 µM) | relative viability (CAP-232 + AZD7762; first compound 0.4 µM) | relative viability (CAP-232 + AZD7762; first compound 1.265 µM) | relative viability (CAP-232 + AZD7762; first compound 4 µM) | relative viability (CAP-232 + AZD7762; first compound 12.65 µM) | relative viability (CAP-232 + Decitabine; first compound 0.4 µM) | relative viability (CAP-232 + Decitabine; first compound 1.265 µM) | relative viability (CAP-232 + Decitabine; first compound 4 µM) | relative viability (CAP-232 + Decitabine; first compound 12.65 µM)
NCI-H1915 | 0.207 | 0.307 | 0.291 | 0.371 | 0.825 | 0.75 | 0.771 | 0.766 | 0.946 | 0.798 | 0.806 | 0.736 | 0.771 | 0.685 | 0.704 | 0.762 | 0.272 | 0.227 | 0.269 | 0.25
NCI-H1944 | 0.353 | 0.437 | 0.404 | 0.422 | 1.06 | 1.01 | 1.04 | 0.98 | 0.709 | 0.695 | 0.78 | 0.667 | 0.516 | 0.476 | 0.452 | 0.367 | 0.426 | 0.424 | 0.363 | 0.424
NCI-H1975 | 0.368 | 0.262 | 0.743 | 0.225 | 1.24 | 1.1 | 1.28 | 0.853 | 0.256 | 0.195 | 0.195 | 0.185 | 0.892 | 0.711 | 0.712 | 0.442 | 0.399 | 0.39 | 0.406 | 0.207
NCI-H1993 | 0.443 | 0.491 | 0.589 | 0.429 | 0.961 | 0.864 | 1.15 | 0.907 | 0.735 | 0.882 | 0.99 | 0.831 | 0.756 | 0.702 | 0.694 | 0.633 | 0.569 | 0.676 | 0.608 | 0.559
NCI-H2085 | 0.514 | 0.586 | 0.532 | 0.569 | 1.18 | 1.06 | 1.15 | 1.15 | 0.472 | 0.459 | 0.425 | 0.462 | 1.04 | 1.03 | 0.988 | 0.964 | 0.56 | 0.542 | 0.511 | 0.545
NCI-H2087 | 0.188 | 0.228 | 0.201 | 0.205 | 1.19 | 1.16 | 1.02 | 0.616 | 0.187 | 0.157 | 0.146 | 0.143 | 1.32 | 1.4 | 1.59 | 0.684 | 0.265 | 0.261 | 0.276 | 0.238
NCI-H2126 | 0.622 | 0.523 | 0.561 | 0.602 | 0.864 | 0.804 | 0.843 | 0.851 | 0.909 | 0.955 | 0.992 | 0.659 | 1.11 | 1.01 | 1.18 | 1.01 | 0.488 | 0.612 | 0.618 | 0.614
NCI-H2170 | 0.977 | 0.918 | 1.05 | 1.08 | 0.68 | 0.573 | 0.578 | 0.603 | 0.777 | 0.866 | 0.674 | 0.826 | 0.915 | 0.907 | 0.906 | 0.846 | 0.496 | 0.492 | 0.492 | 0.486
NCI-H2347 | 0.34 | 0.255 | 0.256 | 0.241 | 0.834 | 0.951 | 0.718 | 0.72 | 0.274 | 0.493 | 0.443 | 0.471 | 0.733 | 0.746 | 0.726 | 0.662 | 0.648 | 0.589 | 0.555 | 0.544
NCI-H2405 | 0.416 | 0.673 | 0.558 | 0.447 | 0.821 | 1.07 | 0.795 | 0.562 | 0.61 | 0.709 | 0.641 | 0.491 | 0.822 | 0.8 | 0.765 | 0.524 | 0.715 | 0.752 | 0.796 | 0.578
NCI-H3122 | 0.222 | 0.194 | 0.293 | 0.24 | 1.01 | 0.988 | 1.02 | 1.03 | 0.0705 | 0.067 | 0.0822 | 0.0819 | 0.984 | 1.08 | 1.14 | 0.958 | 0.392 | 0.364 | 0.458 | 0.426
PC-3 [JPC-3] | 0.703 | 0.7 | 0.69 | 0.7 | 0.827 | 0.801 | 0.725 | 0.698 | 0.663 | 0.661 | 0.732 | 0.538 | 1.02 | 0.735 | 0.873 | 0.794 | 0.738 | 0.895 | 0.821 | 0.864
PC-14 | 0.843 | 0.891 | 0.739 | 0.37 | 0.93 | 1.02 | 1.16 | 0.848 | 0.26 | 0.178 | 0.183 | 0.125 | 0.522 | 0.297 | 0.334 | 0.24 | 0.215 | 0.191 | 0.205 | 0.151
RERF-LC-KJ | 0.927 | 0.778 | 0.784 | 0.566 | 1.05 | 1.08 | 1.02 | 0.703 | 1.27 | 1.39 | 1 | 0.918 | 1.01 | 1.03 | 0.997 | 0.914 | 0.659 | 0.758 | 0.79 | 0.41
